These results are taken from PubChem BioAssay (NCI).

Holding throughout (experiment): NCI-60 cell line screen, 48 h
Experiment [1] relates to ACHN renal.
Experiment [2] deals with HOP-92 NSCLC.
Experiment [3] has as its system SK-OV-3 ovarian.
For experiment [4], the system named is OVCAR-5 ovarian.
The test system of experiment [5] is RXF 393 renal.
Experiment [6] concerns SK-MEL-28 melanoma.
For experiment [7], the system named is MOLT-4 leukemia.
Experiment [8] deals with RPMI-8226 leukemia.
For experiment [9], the system named is NCI/ADR-RES ovarian.
Experiment [10] deals with MDA-N.

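Grown in 96-well plates, cells were treated for 48 hours with each compound at five concentrations. Insufficient inhibition: endpoint recorded as highest concentration tested. Abbreviation: GI50, concentration required for 50% inhibition of growth. TGI denotes the concentration required for complete inhibition of growth.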

As for `NC(=O)COc1ccccc1`, the TGI in experiment [1], in experiment [2], in [3], in experiment [4], in experiment [5] and in experiment [6] was above 100 µM each time. In addition, the TGI in experiment [7] and in experiment [8] was above 100 µM in each case.

With `COc1c/c(=C2/C=c3ccccc3=N2)[nH]/c1=C/c1[nH]c(C)cc1C`, the values for the GI50 in experiment [7] and in [8] were 29.3 nM and 53.3 nM, respectively. Moreover, the TGI in experiment [7] amounted to 2.95 µM; in [8] it was 1.95 µM.

For the compound `OCCN=C1Nc2ccc(Cl)cc2C(=S)N2CSC[C@@H]12`, the TGI in [1], in experiment [9], in [2], in [3], in [4] and in experiment [5] was above 100 µM throughout. The TGI in [6], in experiment [7] and in [8] was above 100 µM throughout.

`O=[As](O)(O)c1cc(N=Nc2ccc(-c3ccc(N=Nc4cc([As](=O)(O)O)c(O)cc4O)cc3)cc2)c(O)cc1O`: the TGI in [1] was above 100 µM; in [2], above 100 µM; in [3], above 100 µM; in experiment [4] it was 97.6 µM; in experiment [5], above 100 µM; in [6], above 100 µM. The TGI in [7] and in experiment [8] was above 100 µM throughout.

Regarding `COS(=O)c1cc(Cl)cc(Cl)c1O` (centres undefined), the TGI in [1], in experiment [3], in experiment [4], in [5], in [6] and in experiment [7] was above 100 µM throughout.

Take `CN1C2CC(=O)CC1[C@@H]1OC(c3ccccc3)O[C@H]21` (some centres undefined): the TGI in experiment [9], in experiment [3], in [5], in experiment [6], in experiment [10] and in experiment [7] was above 100 µM each time. Further, the TGI in [8] was above 100 µM.

In the case of `Nc1nc2c(ncn2C2C=CC(CO)O2)c(=O)[nH]1` (centres undefined), the TGI in [9], in [2], in experiment [4], in experiment [5], in experiment [6] and in experiment [10] was above 100 µM in each case. The TGI in experiment [7] and in experiment [8] was above 100 µM throughout.

For `COc1cc(C2C3=C(COC3=O)OC(C)(C)Oc3cc4c(cc32)OCO4)cc(OC)c1OC` (centres undefined), the TGI was above 100 µM in [1]; above 100 µM in [2]; above 100 µM in [3]; above 100 µM in [4]; above 100 µM in experiment [6]; 3.56 µM in experiment [10]. For the same compound, the TGI in [7] was above 100 µM; in experiment [8], above 87.3 µM.

As for `O=C(NNC(=S)Nc1ccccc1)c1csc(NC(=S)NC2CCCCC2)n1`, the TGI in experiment [1], in experiment [9], in [2], in experiment [3], in [4] and in experiment [10] was above 100 µM each time. The TGI in [7] and in experiment [8] was above 100 µM throughout.

As to `O=C1NC(N/N=C\c2ccccc2)=N/C1=C/c1ccc(Cl)cc1`, the TGI was 30 µM in experiment [1]; 56.6 µM in experiment [9]; 43.4 µM in experiment [3]; 94.1 µM in experiment [4]; 47.3 µM in experiment [5]; above 100 µM in [6]. For the same compound, the values for the TGI in experiment [10], in experiment [7] and in experiment [8] were above 100 µM, 33.9 µM and 59.7 µM, respectively.

Take `COc1cccc(-c2nc3sccn3c2-c2ccnc(NCCNC(=O)Nc3cccc(C(F)(F)F)c3)n2)c1`: the GI50 is 3.17 µM in experiment [1]; 3.45 µM in [9]; 853 nM in experiment [2]; 6.37 µM in [4]; 1780 nM in [5]; 5.36 µM in experiment [6]. The GI50 in experiment [7] was 3270 nM; in experiment [8] it was 1920 nM. For the same compound, the TGI was 19.1 µM in experiment [1]; above 100 µM in experiment [9]; 9.47 µM in [2]; 52.2 µM in [4]; 3.65 µM in experiment [5]; 26.2 µM in experiment [6]. Also, the TGI in [7] stood at 9.94 µM; in [8], 5.11 µM.

With `COc1ccc(NC2Oc3cc4c(cc3C(c3cc(OC)c(O)c(OC)c3)C2C)OCO4)cc1` (centres undefined), the TGI in experiment [1] is 32.1 µM; in [9], 98 µM; in experiment [2], above 100 µM; in experiment [4] it was 73.7 µM; in experiment [5] it was 61.8 µM; in experiment [6], 37.3 µM. In [8], the TGI came to 12.9 µM.

Regarding `COC(=O)C(COC(=O)/C=C/c1ccc(OC(C)=O)c(OC(C)=O)c1)OC(=O)/C=C/c1ccc(OC(C)=O)c(OC(C)=O)c1` (centres undefined), the TGI in experiment [1] is 27.8 µM; in [9], 50.5 µM; in [2] it was 47.6 µM; in experiment [4] it was 36.8 µM; in [5], 25.8 µM; in experiment [6], 30.9 µM. Further, the TGI came out at 21.7 µM in experiment [10], 7.2 µM in experiment [7] and 66.4 µM in [8].

`COC(=O)c1cncc2c1CC1C3(C(=O)OC)C=NC(C4C(CO)=CCC43)C21C` (centres undefined): the TGI in experiment [1], in experiment [9], in experiment [2], in experiment [4], in experiment [5] and in experiment [6] was above 100 µM each time. In addition, the TGI in experiment [10] and in experiment [7] was above 100 µM each time.

Take `O=C(c1ccco1)N(C(=S)OCc1ccccn1)c1ccccc1`: the TGI in experiment [1], in experiment [9], in experiment [3], in [4], in experiment [5] and in experiment [6] was above 100 µM in each case. Moreover, the TGI in experiment [10], in experiment [7] and in experiment [8] was above 100 µM in each case.
